Data published in patent US5534654A, “Aromatic-sulfonamide-type hydroxamic acid derivative” (Shionogi & Co., Ltd., priority 1991, dated 1996).

Legend:
Assay type in all cases: cell-based
[1] = test system: NIH3T3 cells transformed by ras gene; experiment: Detransformation of Cells Transformed by Ras Gene; settings: Mus musculus, 24 hours, 2-fold serial dilutions, morphological observation, read-out: MTC: Minimum Concentration Required for the Detransformation of Cells Transformed by Ras Gene
Description: Medium used: 9.5 g of Dulbecco's Eagle MEM medium (Nissui Seiyaku) solution, 20 ml of 7% sodium hydrogen carbonate solution are added to distilled water and a fetal bovine serum (Flow Laboratories, Inc.) was added to a final concentration of 10 v/v % to obtain the medium. The medium (100 μl) was added to a 96-well plate (Sumitomo Bakelite) and NIH3T3 cells transformed by ras gene (5×10^3 cells/well) were seeded. The plate was incubated for 24 hr in a 5% carbon dioxide gas incubator. Then a sample to be tested was added in such a manner as to give 2-fold serial dilutions. After 24 hours, cells were observed morphologically to evaluate the detransformation activity.
Minimum Concentration Required for the Detransformation of Cells Transformed by Ras Gene

[2] = test system: Cell Adhesion of Leukocytes onto Vascular Endothelial Cells of Human Umbilical Vein; experiment: Assay of Inhibition Activity Against Cell Adhesion of Leukocytes (HL60 cells) onto Vascular Endothelial Cells of Human Umbilical Vein; settings: 16-hour incubation with sample, then TNF 4 hr, HL-60 cells 30 min, Rose Bengal OD570
Description: Assay of Inhibition Activity Against Cell Adhesion of Leukocytes onto Vascular Endothelial Cells of Human Umbilical Vein
Human vascular endothelial cells used had been obtained from human umbilical vein by perfusion method using an enzyme solution of collagenase and have been maintained by subculturing in a culture solution, i.e., M199 medium (Gibco, Inc.) supplemented with 20% fetal bovine serum (FBS; Gibco, Inc.), 100 μg/ml endothelial mitogen (Funakoshi), 90 μg/ml heparin, 50 IU/ml Penicillin and 50 μg/ml Streptomycin. HL60 cells (human myelocytic leukemia cells) were purchased from Flow, Inc. and have been maintained by subculturing in RPMI1640 medium containing 10% FBS.
Four hours later, to each well was added 4 μl of a medium containing a sample at various concentrations. […] After 16-hour-incubation, 4 μl of 1×10^4 μ/ml TNF solution (tumor necrosis factor dissolved in a medium solution) was added and the incubation was continued for 4 hr. The resultant medium solution containing the sample was then filtered with suction and washed (×3) with DMEM solution containing 10% FBS, which was followed by the addition of 200 μl suspension of 3×10^5 HL-60 cells suspended in DMEM containing 10% FBS. The incubation was carried out at 37° C. for 30 min. […] After being allowed to stand for 5 min at room temperature, the supernatant was removed by aspiration, which was followed by washing (×2) with DMEM solution containing 10% FBS. A mixture of ethanol/phosphate-buffered physiological saline (1:1) was added and the resultant mixture was allowed to stand for 30 min to solubilize Rose Bengal pigment, which was followed by the determination of OD570 value on spectrophotometer.

[3] = test system: Vascular Endothelial Cells of Human Umbilical Vein; experiment: Assay of Inhibition Against the Cell Growth of Vascular Endothelial Cells of Human Umbilical Vein (MTT method); settings: 72 h, 3-day incubation, OD570
Description: Assay of Inhibition Against the Cell Growth of Vascular Endothelial Cells of Human Umbilical Vein
Human vascular endothelial cells used had been obtained from human umbilical vein by perfusion method using an enzyme solution of collagenase and have been maintained by subculturing in a culture solution, i.e., M199 medium (Gibco, Inc.) supplemented with 20% fetal bovine serum (FBS; Gibco, Inc.), 100 μg/ml endothelial mitogen (Funakoshi), 90 μg/ml heparin, 50 IU/ml Penicillin and 50 μg/ml Streptomycin. […] On the next day, to each well was added 10 μl of a medium containing a sample at various concentrations. […] After 3-day-incubation, to the mixture was added 50 μl of 3 mg/ml MTT solution (a solution of 3-(4,5-dimethyl-2-thiazolyl)-2,5-diphenyl-2H-tetrazolium bromide dissolved in a culture solution) and the incubation was continued for 4 hr. Cells and MTT pigment were solubilized by the addition of 50 μl of 20% SDS solution (sodium dodecylsulfate dissolved in 0.02N HCl) and the incubation continued for 1 hr, which was followed by the determination of OD570 value on spectrophotometer.

SMILES | IC50 [2] [µM] | minimal effective concentration [1] [µM] | IC50 [3] [µM]
O=C(/C=C/C=C/c1ccccc1NS(=O)(=O)c1ccccc1)NO [Compound I-4, (2E)(4E)-5-(2-Phenylsulfonylaminophenyl)pentadienohydroxamic Acid] | – | 1.6 | –
O=C(/C=C/C=C/C=C/c1ccccc1NS(=O)(=O)c1ccccc1)NO [Compound I-9, (2E)(4E)(6E)-7-(2-Phenylsulfonylaminophenyl)-heptatrienohydroxamic Acid] | 6.5 | 3.2 | 25.6
O=C(/C=C/C=C/c1cccc(NS(=O)(=O)c2ccccc2)c1)NO [Compound I-10, (2E)(4E)-5-(3-Phenylsulfonylaminophenyl)pentadienohydroxamic Acid] | 5.3 | 0.3 | 20.4
O=C(/C=C/C=C/c1ccc(NS(=O)(=O)c2ccccc2)cc1)NO [Compound I-12, (2E)(4E)-5-(4-Phenylsulfonylaminophenyl)pentadienohydroxamic Acid] | – | 3.1 | –
O=C(/C=C/C=C/c1cc2ccccc2n1S(=O)(=O)c1ccccc1)NO [Compound I-17, (2E)(4E)-5-(1-phenylsulfonylindol-2-yl)pentadienohydroxamic Acid] | 8.3 | 3.2 | –
O=C(/C=C/C#Cc1cccc(NS(=O)(=O)c2ccccc2)c1)NO [Compound I-18, (2E)-5-[3-(Phenylsulfonylamino)phenyl]pent-2-en-4-ynohydroxamic Acid] | 2.5 | 0.039 | 13.8
O=C(/C=C/C=C/c1cc2ccccc2cc1NS(=O)(=O)c1ccccc1)NO [Compound I-20, (2E)(4E)-5-(3'-Phenylsulfonylamino-2'-naphthyl)pentadienohydroxamic Acid] | – | 0.6 | –

The next lines start with results.

IC50 [2] [µM] | SMILES | minimal effective concentration [1] [µM] | IC50 [3] [µM]
4.5 | CN(c1ccccc1/C=C/C=C/C(=O)NO)S(=O)(=O)c1ccccc1 [Compound I-7, (2E)(4E) -5-[2-(N-Methylphenylsulfonylamino)phenyl]-2,4-pentadienohydroxamic Acid] | 0.2 | –
6.4 | CN(c1cccc(/C=C/C=C/C(=O)NO)c1)S(=O)(=O)c1ccccc1 [Compound I-11] | 0.6 | –
6.3 | CN(c1cccc(C#C/C=C/C(=O)NO)c1)S(=O)(=O)c1ccccc1 [Compound I-19, (2E)-5-[3-(N-Methylphenylsulfonylamino)phenyl]pent-2-en-4-ynohydroxamic Acid] | 0.3 | 26.7
